Where two headings read alike, the source gives them in different places.
Assays:
[1] = molecular target: T1, Lck (lymphocyte-specific protein tyrosine kinase) (Homo sapiens, UniProt P06239); test: Millipore KinaseProfiler selectivity screen; assay type: biochemical
T1 construct: purchased Millipore (KinaseProfiler service)
Description: (§1) Baculovirus FAK catalytic domain and in vitro kinase assays: The FAK catalytic domain region (411-686) was generated by polymerase chain reaction using the primers 5′-[…]-3′ 5′-[…]-3′, cloned into pGEX4T as a fusion with GST, and moved into the pAcG2T baculovirus expression vector (Pharmingen, Baculogold). Virus clones were identified by plaque assays and amplified. For protein expression, SF9 cells were transduced at a multiplicity of infection of 2-5 pfu/cell and cultured at 27° C. for 48 h. Glutathione agarose affinity chromatography were used to purify GST-FAK (411-686) followed by size fractionation using hiload 16/60 Superdex chromatography (GE Healthcare). Protein was concentrated and stored frozen in 50 mM Tris pH 8.0, 150 mM NaCl, 1 mM Na orthovanadate, 0.5 mM EDTA, 0.5 mM EGTA, 0.1% β-mercaptoethanol, and 20% glycerol. Purity was estimated at >90% by SDS-PAGE. GST-FAK in vitro kinase activity was measured and compared to His-tagged FAK 411-686 (Millipore) using the K-LISA screening kit (Calbiochem) and poly(Glu:Tyr) (4:1) copolymer (P0275, Sigma) as a substrate immobilized on microtiter plates. […] Serial diluted compounds at ½-Log concentrations (starting at 1 μM) were tested in triplicate. Substrate phosphorylation was measured using horseradish peroxidase-conjugated anti-pTyr antibodies (PY20, Santa Cruz Biotechnology) with spetrophotometic color quantitation. IC50 values were determined using the Hill-Slope Model. Kinase selectivity profiling was performed by using the KinaseProfiler service (Millipore).

[2] = molecular target: T2, FAK (Homo sapiens, UniProt Q05397); test: Millipore KinaseProfiler selectivity screen; assay type: biochemical
T2 construct: purchased Millipore (KinaseProfiler service)
T2 sequence (Q05397 whole entry): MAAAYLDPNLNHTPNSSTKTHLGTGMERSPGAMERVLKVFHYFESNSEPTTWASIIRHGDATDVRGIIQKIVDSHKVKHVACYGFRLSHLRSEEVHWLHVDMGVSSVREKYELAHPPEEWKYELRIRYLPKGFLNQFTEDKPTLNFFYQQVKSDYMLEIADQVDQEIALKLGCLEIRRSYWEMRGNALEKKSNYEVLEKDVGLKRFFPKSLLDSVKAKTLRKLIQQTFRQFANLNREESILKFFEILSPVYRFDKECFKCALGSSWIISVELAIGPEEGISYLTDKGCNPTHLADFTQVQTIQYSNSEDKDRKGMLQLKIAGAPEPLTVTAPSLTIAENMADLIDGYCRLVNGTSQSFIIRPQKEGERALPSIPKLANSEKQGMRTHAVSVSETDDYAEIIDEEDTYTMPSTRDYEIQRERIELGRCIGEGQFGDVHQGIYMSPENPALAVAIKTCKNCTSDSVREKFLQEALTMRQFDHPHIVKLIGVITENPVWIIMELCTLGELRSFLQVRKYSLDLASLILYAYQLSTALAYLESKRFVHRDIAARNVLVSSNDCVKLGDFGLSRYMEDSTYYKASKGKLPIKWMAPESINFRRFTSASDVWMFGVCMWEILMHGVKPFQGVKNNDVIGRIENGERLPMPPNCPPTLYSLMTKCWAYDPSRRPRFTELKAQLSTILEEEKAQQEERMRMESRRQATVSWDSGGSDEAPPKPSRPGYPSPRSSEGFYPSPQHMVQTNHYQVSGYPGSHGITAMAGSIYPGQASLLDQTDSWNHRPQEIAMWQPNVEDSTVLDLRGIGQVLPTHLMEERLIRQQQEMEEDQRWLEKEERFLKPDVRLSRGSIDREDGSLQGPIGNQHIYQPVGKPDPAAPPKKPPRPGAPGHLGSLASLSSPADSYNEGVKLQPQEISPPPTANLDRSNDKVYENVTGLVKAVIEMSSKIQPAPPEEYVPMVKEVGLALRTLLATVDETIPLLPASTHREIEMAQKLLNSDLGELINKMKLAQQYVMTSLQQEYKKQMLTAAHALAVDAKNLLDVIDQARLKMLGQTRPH
Description: as §1

[3] = molecular target: T3, CDK2 (cyclin-dependent kinase 2)/cyclin A (Homo sapiens, UniProt P24941); test: Millipore KinaseProfiler selectivity screen; assay type: biochemical
T3 construct: purchased Millipore (KinaseProfiler service)
Description: as §1

[4] = tested on: FAK and p130Cas phosphorylation in 4T1 tumors; test: Pharmacodynamic (PD) evaluation in subcutaneous 4T1 tumors, single i.p. injection; assay type: in vivo, Balb/c mice; details: for maximal plasma levels: single injection
[5] = as above; assay type: in vivo, Balb/c mice; details: Balb/c, mouse, intraperitoneal, 100 mg/kg i.p., 12 h
[6] = tested on: p130Cas tyrosine phosphorylation (pY249, pY410); test: Phospho-specific immunoblotting of p130Cas in 4T1 cells; assay type: cell-based, murine
Text: Immunoblotting: Protein extracts of cells were made using lysis buffer containing 1% Triton X-100, 1% sodium deoxycholate, and 0.1% SDS and were separated by 4-12% SDS-PAGE (sodium dodecyl sulfate polyacrylamide gel electrophoresis) and sequential immunoblotting performed as described in Mitra S K, Lim S T, Chi A, Schlaepfer D D. Intrinsic focal adhesion kinase activity controls orthotopic breast carcinoma metastasis via the regulation of urokinase plasminogen activator expression in a syngeneic tumor model. Oncogene 2006; 25:4429-40. Relative expression levels and phospho-specific antibody reactivity were measured by densitometry analyses of blots using Image J (version 1.42q). Inhibition of FAK and p130Cas tyrosine phosphorylation was quantified by calculating the ratio of pY397 FAK protein to total FAK. Similar analyses were performed for p130Cas using pY410 p130Cas and total p130Cas blot data.

[7] = tested on: 4T1 cells; test: Millicell chamber motility assay (fibronectin, serum chemotaxis); assay type: cell-based, murine; details: Mus musculus, 4 h, read-out: maximal inhibition of cell movement
Description: (§2) Cell migration assays: Serum-stimulated chemotaxis using Millicell (12 mm diameter with 8 μm pores; Millipore) chambers were performed as described previously^49. Both sides of membrane were coated with fibronectin (10 μg/ml) and chemotaxis was stimulated by addition of 10% FBS to the lower chamber. Data points represent cell counts (9 fields) from three migration chambers from at least two independent experiments. For scratch-wound closure motility assays, cells were seeded onto fibronectin-coated (10 μg/ml) glass bottom 12 well plates (MatTek) and serum starved (0.5% FBS) for 16 h. Cells were wounded with a pipette tip, washed with phosphate-buffered salin (PBS), and replenished with 10% FBS media with or without FAK inhibitor (1 μM). Time-lapse series was obtained by acquiring images at 10 min intervals for up to 22 h, at 37° C. with humidity and CO2 regulation using a 10× objective on an automated stage (Olympus IX81). Cell trajectories and distance traveled were measured by tracking nucleus position over time using Image J.

[8] = tested on: 4T1 cells; test: Time lapse scratch-wound closure motility assay; assay type: cell-based
Description: as §2

[9] = tested on: 4T1 cells; test: Annexin V binding by flow cytometry; assay type: cell-based, murine; details: 24 h
Description: Cell pellets were resuspended in 300 p. 1 of PBS containing propidium iodide (PI) (10 μg/ml), DNAse-free RNAse (100 μg/ml, Qiagen), and then incubated at 37° C. with agitation for 1 h. Samples were analyzed by flow cytometry (FACSCalibur, Becton-Dickinson) and cell cycle analyses were performed by ModFit LT3.2 software (Verity software house). Hypodiploid DNA content as a measure of cell apoptosis was detected by PI staining as described ^29. […] Quadrant gates were positioned based on cell autofluorescence (negative) staurosporine-treated (positive) controls. Apoptosis was calculated to be the percent of annexin V-positive cells. In the soft agar assays, apoptosis was quantified by visual inspection of at least 200 cells and was defined as the appearance of membrane blebbing or cell shrinkage. Apoptosis was also detected by appearance of cleaved caspase-3 antibody reactivity in protein lysates by immunoblotting.

T1 sequence (P06239 whole entry): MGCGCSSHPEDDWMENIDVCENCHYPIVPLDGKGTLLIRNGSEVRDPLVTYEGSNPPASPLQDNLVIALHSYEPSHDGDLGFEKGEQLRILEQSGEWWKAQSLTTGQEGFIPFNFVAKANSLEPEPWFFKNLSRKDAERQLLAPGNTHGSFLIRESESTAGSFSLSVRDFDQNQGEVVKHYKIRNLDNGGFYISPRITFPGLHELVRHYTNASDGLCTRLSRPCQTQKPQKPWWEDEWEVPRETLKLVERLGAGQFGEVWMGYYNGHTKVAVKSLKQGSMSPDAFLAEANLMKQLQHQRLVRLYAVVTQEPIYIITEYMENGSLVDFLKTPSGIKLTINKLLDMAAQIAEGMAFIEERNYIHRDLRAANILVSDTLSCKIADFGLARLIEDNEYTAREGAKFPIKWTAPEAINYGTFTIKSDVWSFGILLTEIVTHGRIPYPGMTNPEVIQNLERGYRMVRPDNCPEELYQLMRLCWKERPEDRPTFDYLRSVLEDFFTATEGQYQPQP

Which inhibition at 1 µM [1] does the source give for `CNC(=O)c1ccccc1Nc1cc(Nc2ccc(N3CCOCC3)cc2OC)ncc1C(F)(F)F` [PND-1186] here?
Its inhibition at 1 µM is over 50%.

And the kinase inhibition specificity ([2]; 0.1 μM PND-1186)?
Its kinase inhibition specificity is “displayed specificity for FAK as well as Flt3”.

And the remaining kinase activity ([2]; 1 μM PND-1186)?
The remaining kinase activity was “negligible activity”.

What about the inhibition at 1 µM [3] of the same molecule?
Its inhibition at 1 µM is over 50%.

And the “duration of tumor FAK pY397 inhibition” value ([4]; 30 mg/kg i.p.)?
Its value is 3 to 6 h.

And the “maximal PND-1186 in tumors” value ([4]; 30 mg/kg i.p.)?
The value was 0.75 µg/g.

And the “time to maximal PND-1186 in tumors” value ([4]; 30 mg/kg i.p.)?
The value was at most 1 h.

And the “time to maximal plasma levels” value ([4]; 30 mg/kg i.p.)?
The value was at most 15 min.

What about the “plasma levels at 12 h” value ([4]; 30 mg/kg i.p., 12 h) of the same molecule?
The value was 0.1 µM.

What about the “tumor FAK pY397 phosphorylation at 12 h” value ([4]; 30 mg/kg i.p., 12 h) of the same molecule?
The value was “not significantly inhibited”.

And the “tumor PND-1186 levels by 12 h” value ([4]; 30 mg/kg i.p., 12 h)?
Its value is 0.04 µg/g.

What about the maximal plasma levels ([4]; 30 mg/kg i.p.) of the same molecule?
The maximal plasma levels was 35 µM.

What about the “time to maximal PND-1186 in tumors” value ([4]; 100 mg/kg i.p.) of the same molecule?
Its value is at most 1 h.

And the “time to maximal plasma levels” value ([4]; 100 mg/kg i.p.)?
The value was at most 30 min.

What about the “plasma levels at 12 h” value ([4]; 100 mg/kg i.p., 12 h) of the same molecule?
The value was 1.1 µM.

And the “p130Cas Tyr-410 phosphorylation (pY410Cas) in tumors” value ([4]; 100 mg/kg i.p., by 3 h)?
The value was “significantly reduced p130Cas Tyr-410 phosphorylation”.

What about the “sustained inhibition of tumor FAK Tyr-397 phosphorylation” value ([4]; 100 mg/kg i.p., for 12 h) of the same molecule?
The value was over 60%.

And the maximal plasma levels ([4]; 100 mg/kg i.p.)?
Its maximal plasma levels is 117 µM.

And the “maximal PND-1186 in tumors” value ([4]; 100 mg/kg i.p., maintained up to 12 h)?
Its value is 16.1 µg/g.

What about the concentration at 12 h ([5]; plasma, read-out: average concentration in plasma at 12 h) of the same molecule?
Its concentration at 12 h is 15.1 µM.

And the concentration at 12 h ([5]; tumor, read-out: average concentration in tumors at 12 h)?
The concentration at 12 h was 10400 ng/g.

What about the “p130Cas pY249 phosphorylation in 4T1 spheroids” value ([6]; 0.1 μM, 3D spheroids) of the same molecule?
The value was “potently inhibited”.

What about the “p130Cas pY410 phosphorylation in 4T1 spheroids” value ([6]; 0.1 μM, 3D spheroids) of the same molecule?
The value was “potently inhibited”.

What about the “p130Cas pY249 phosphorylation” value ([6]; adherent 4T1 cells, 1 h, PND-1186 to 1 μM) of the same molecule?
Its value is “did not affect”.

What about the inhibition at 0.4 µM [7] of the same molecule?
The inhibition at 0.4 µM was 50 to 60%.

What about the “cell detachment or death” value ([8]; 1 μM over 22 h) of the same molecule?
The value was “No evidence of 4T1 cell detachment or death”.

And the wound closure ([8]; 1 μM, 22 h (DMSO 89%))?
The wound closure was 40%.

What about the “annexin V positive staining, suspended cells” value ([9]; 0.1 to 0.4 μM) of the same molecule?
The value was 50-60%.

And the “annexin V-positive cells, adherent conditions” value ([9]; up to 1.0 μM)?
The value was “did not increase”.

Reference: patent US20120196858A1, “METHOD OF PROMOTING APOPTOSIS AND INHIBITING METASTASIS” (Poniard Pharmaceuticals ,Inc., priority 2009, published 2012)
